# Assay results published in patent US20240277736A1, “USE OF PSILOCYBIN IN THE TREATMENT OF NEUROLOGICAL BRAIN INJURY AND MIGRAINES” (priority 2020, published 2024).
# “Also recorded” adds a separate entry of the source.
# Experiments:
# [1] = tested on: primary cortical neuronal culture (PCN); test: Glutamate neurotoxicity in primary cortical neuronal culture, MAP2 immunostaining; conditions: Glu 100 µM
# 5-HT1A = target: T1, 5-HT1A (Homo sapiens, UniProt P08908); conditions: cited from earlier work
# T1 sequence (P08908 1-422): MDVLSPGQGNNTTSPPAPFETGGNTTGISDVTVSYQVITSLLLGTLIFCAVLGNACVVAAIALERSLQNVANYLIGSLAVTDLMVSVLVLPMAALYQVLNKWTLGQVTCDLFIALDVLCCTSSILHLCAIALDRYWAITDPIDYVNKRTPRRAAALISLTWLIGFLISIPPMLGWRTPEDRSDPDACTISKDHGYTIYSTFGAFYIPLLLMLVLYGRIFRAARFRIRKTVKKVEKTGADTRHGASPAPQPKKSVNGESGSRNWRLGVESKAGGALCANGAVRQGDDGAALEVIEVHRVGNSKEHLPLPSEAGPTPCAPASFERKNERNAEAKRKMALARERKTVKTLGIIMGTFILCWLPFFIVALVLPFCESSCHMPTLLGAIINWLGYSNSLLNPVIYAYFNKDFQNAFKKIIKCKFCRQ
# cluster headache (CH) = conditions: low-dose psilocybin; cited from earlier work
# 5-HT2A receptor = 5-HT2A receptor (Homo sapiens, UniProt P28223); conditions: cited from earlier work
# TBI mice = test: Morris water maze test in a mouse model of traumatic brain injury (controlled cortical impact)
# [2] = Body weight of TBI mice on PID21; format: in vivo, CD1 mice; conditions: for body weight: measured on PID21
# [3] = Deaths during surgery or post-TBI drug treatment; format: in vivo, CD1 mice; conditions: intranasal, day 4 to day 8 after CCI
# [4] = high dose Psilocybin, day 4 to day 8, PID 10, 14 and 21
# Sequence of 5-HT2A receptor (P28223 whole entry): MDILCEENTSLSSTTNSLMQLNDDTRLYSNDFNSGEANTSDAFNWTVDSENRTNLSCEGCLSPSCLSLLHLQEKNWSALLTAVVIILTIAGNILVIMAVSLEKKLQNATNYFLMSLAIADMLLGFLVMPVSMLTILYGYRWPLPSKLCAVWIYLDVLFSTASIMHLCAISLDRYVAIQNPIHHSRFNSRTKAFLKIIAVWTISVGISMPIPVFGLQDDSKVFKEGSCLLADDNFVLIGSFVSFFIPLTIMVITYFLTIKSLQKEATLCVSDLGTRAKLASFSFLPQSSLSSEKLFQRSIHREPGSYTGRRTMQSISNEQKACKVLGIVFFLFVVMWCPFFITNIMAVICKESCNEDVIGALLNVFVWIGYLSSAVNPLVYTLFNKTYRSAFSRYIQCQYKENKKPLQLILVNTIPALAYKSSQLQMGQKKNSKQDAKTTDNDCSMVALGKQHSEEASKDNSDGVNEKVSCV
SMILES,Effect on MAP2 immunoreactivity (MAP2-ir) vs. vehicle ([1]; 48 hrs),Agonist activity at 5-HT1A (5-HT1A),Effect on cluster headache (cluster headache (CH)),Agonist activity at 5-HT2A receptor (5-HT2A receptor),"No. of crossing (average number of platform crossings) (TBI mice; Psi-H (high dose), Day 3 (PID3, before drug treatment))","No. of crossing (average number of platform crossings) (TBI mice; Psi-H (high dose, i.n. day 4 to day 8 after CCI), Day 10)","No. of crossing (average number of platform crossings) (TBI mice; Psi-H (high dose, i.n. day 4 to day 8 after CCI), Day 14)","No. of crossing (average number of platform crossings) (TBI mice; Psi-H (high dose, i.n. day 4 to day 8 after CCI), Day 21)","No. of crossing (average number of platform crossings) (TBI mice; Psi-L (low dose), Day 3 (PID3, before drug treatment))","No. of crossing (average number of platform crossings) (TBI mice; Psi-L (low dose, i.n. day 4 to day 8 after CCI), Day 10)","No. of crossing (average number of platform crossings) (TBI mice; Psi-L (low dose, i.n. day 4 to day 8 after CCI), Day 14)","No. of crossing (average number of platform crossings) (TBI mice; Psi-L (low dose, i.n. day 4 to day 8 after CCI), Day 21)",Average number of platform crossings in TBI mice (in words) (TBI mice; [4]),Time in the target area in TBI mice (in words) (TBI mice; [4]),Cognitive function in TBI mice (Morris water maze) (TBI mice; i.n. starting 4 days after TBI for 5 days),"Antagonism of glutamate-mediated reduction of MAP2 immunoreactivity (neuronal loss) ([1]; PSI 100 nM or 1 μM, n=5-6 per group)",Body weight (in words) ([2]; PID21),body weight ([2]; Psi-H (high dose)),body weight ([2]; Psi-L (low dose)),Animal deaths during post-TBI drug treatment [3]
"N[C@@H](CCC(=O)O)C(=O)O [Glu, glutamate]",significantly reduced,–,–,–,–,–,–,–,–,–,–,–,–,–,–,–,–,–,–,–
"CN(C)CCc1c[nH]c2cccc(OP(=O)(O)O)c12 [Psilocybin, 4-phosphoryloxy-N,N-dimethyltryptamine]",–,moderate agonist,can prevent,strong agonist,4.43 ± 0.69,6.00 ± 0.85,6.00 ± 0.44,6.00 ± 0.66,3.57 ± 0.90,4.14 ± 0.51,4.43 ± 0.61,3.29 ± 0.57,significantly increased,significantly increased,significantly improved,not significantly altered; also recorded: non-significant trend; also recorded: not significantly antagonized; also recorded: did not significantly alter,did not significantly alter,34.7 ± 0.87 g,35.71 ± 0.68 g,No animal died
